Tests used:
Assay in all cases: KinomeScan
Assay type in all cases: binding
Settings in all cases: read-out: % Ctrl @ 10000 nM
FLT3(N8411) = target: T1, FLT3(N8411) (Homo sapiens, UniProt P36888, N841I)
T1 construct: host or cells: T7 phage in E. coli host derived from BL21
Method in brief: (§1)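 qPCR titer; phage-tagged kinase vs bead ligand; compound diluted from 40× DMSO stock; 2.5% DMSO control.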

PIM1 = target: T2, PIM1 (Homo sapiens, UniProt P11309)
T2 construct: host or cells: T7 phage in E. coli host derived from BL21
T2 sequence (P11309 whole entry): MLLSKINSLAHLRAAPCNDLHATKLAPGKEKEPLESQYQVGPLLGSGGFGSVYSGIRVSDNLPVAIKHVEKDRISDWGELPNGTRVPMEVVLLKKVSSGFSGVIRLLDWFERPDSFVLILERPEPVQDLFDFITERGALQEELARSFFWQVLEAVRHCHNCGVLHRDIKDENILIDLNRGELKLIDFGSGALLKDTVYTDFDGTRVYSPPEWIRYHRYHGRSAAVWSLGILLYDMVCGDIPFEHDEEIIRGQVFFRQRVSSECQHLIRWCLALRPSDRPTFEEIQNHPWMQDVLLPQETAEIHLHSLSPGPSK
Method in brief: as §1

KIT(V559D) = target: T3, KIT(V559D) (Homo sapiens, UniProt P10721, V559D)
T3 construct: host or cells: T7 phage grown in E. coli host derived from BL21
T3 sequence (P10721 26-976 V559D): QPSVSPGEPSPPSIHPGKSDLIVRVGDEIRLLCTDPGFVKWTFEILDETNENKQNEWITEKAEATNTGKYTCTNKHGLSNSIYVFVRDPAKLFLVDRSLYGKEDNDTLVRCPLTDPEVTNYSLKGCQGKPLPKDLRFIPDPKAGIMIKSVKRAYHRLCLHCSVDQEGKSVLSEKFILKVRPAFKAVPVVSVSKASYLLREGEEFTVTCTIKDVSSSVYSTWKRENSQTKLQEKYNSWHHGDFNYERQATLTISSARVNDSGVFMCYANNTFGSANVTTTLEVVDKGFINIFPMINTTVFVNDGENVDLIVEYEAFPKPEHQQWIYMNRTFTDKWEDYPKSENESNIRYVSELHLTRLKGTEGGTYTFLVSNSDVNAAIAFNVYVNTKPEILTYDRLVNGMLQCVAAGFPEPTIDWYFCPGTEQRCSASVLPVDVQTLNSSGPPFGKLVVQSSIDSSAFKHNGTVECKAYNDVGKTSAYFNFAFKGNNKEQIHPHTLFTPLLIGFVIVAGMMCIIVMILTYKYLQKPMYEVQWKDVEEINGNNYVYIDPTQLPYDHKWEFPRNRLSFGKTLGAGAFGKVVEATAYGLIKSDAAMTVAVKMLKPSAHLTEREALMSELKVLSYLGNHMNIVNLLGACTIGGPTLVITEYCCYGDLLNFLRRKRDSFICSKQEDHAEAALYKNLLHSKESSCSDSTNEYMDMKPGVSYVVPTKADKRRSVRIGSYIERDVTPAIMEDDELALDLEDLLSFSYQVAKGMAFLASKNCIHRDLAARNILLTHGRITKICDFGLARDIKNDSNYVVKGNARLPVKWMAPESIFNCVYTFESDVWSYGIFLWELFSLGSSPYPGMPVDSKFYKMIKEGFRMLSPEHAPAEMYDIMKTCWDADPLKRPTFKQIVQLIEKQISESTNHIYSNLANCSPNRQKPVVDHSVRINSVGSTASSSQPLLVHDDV
Method in brief: as §1

CSNK1G3 = target: T4, CSNK1G3 (Homo sapiens, UniProt Q9Y6M4)
T4 construct: purchased Ambit Biosciences Corp (KinomeScan); host or cells: T7 phage in E. coli host derived from BL21
Method in brief: as §1

TXK = target: T5, TXK (Homo sapiens, UniProt P42681)
T5 construct: host or cells: E. coli host derived from BL21, T7 phage
Method in brief: as §1

[1] = target: T6, TYK2(JH2domain-pseudokinase) (Homo sapiens, UniProt P29597)
T6 construct: TYK2(JH2domain-pseudokinase); host or cells: E. coli host derived from BL21, T7 phage
Method in brief: as §1

SLK = target: T7, SLK (Homo sapiens, UniProt Q9H2G2)
T7 construct: host or cells: T7 phage grown in E. coli (BL21-derived)
Method in brief: as §1

ABL1(M351T) = target: T8, ABL1(M351T) (Homo sapiens, UniProt P00519, M351T)
T8 construct: host or cells: E. coli (BL21-derived), T7 phage lysate
Method in brief: as §1

ERK8 = target: T9, ERK8 (Homo sapiens, UniProt Q8TD08)
T9 construct: purchased Ambit Biosciences Corp; host or cells: T7 phage in E. coli host derived from BL21
Method in brief: as §1

TSSK1B = target: T10, TSSK1B (Homo sapiens, UniProt Q9BXA7)
T10 construct: host or cells: E. coli host derived from BL21, T7 phage
T10 sequence (Q9BXA7 whole entry): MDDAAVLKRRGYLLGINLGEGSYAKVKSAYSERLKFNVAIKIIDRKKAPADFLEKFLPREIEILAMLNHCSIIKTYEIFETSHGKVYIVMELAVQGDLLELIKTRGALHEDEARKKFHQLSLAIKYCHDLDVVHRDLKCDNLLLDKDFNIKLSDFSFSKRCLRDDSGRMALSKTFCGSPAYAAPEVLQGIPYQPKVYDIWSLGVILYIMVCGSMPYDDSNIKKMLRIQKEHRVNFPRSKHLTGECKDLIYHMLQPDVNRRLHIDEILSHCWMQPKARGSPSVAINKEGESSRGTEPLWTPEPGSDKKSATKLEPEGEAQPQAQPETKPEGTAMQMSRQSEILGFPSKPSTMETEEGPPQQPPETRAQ
Method in brief: as §1

ABL2 = target: T11, ABL2 (Homo sapiens, UniProt P42684)
T11 construct: host or cells: E. coli (BL21-derived), T7 phage lysate
Method in brief: as §1

FGFR3 = target: T12, FGFR3 (Homo sapiens, UniProt P22607)
T12 construct: host or cells: T7 phage in E. coli host derived from BL21
Method in brief: as §1

SIK = target: T13, SIK (Homo sapiens, UniProt P57059)
T13 construct: host or cells: T7 phage grown in E. coli (BL21-derived)
Method in brief: as §1

STK35 = target: T14, STK35 (Homo sapiens, UniProt Q8TDR2)
T14 construct: host or cells: T7 phage grown in E. coli (BL21-derived)
Method in brief: as §1

PRKR = target: T15, PRKR (Homo sapiens, UniProt P19525)
T15 construct: host or cells: T7 phage in E. coli host derived from BL21
T15 sequence (P19525 whole entry): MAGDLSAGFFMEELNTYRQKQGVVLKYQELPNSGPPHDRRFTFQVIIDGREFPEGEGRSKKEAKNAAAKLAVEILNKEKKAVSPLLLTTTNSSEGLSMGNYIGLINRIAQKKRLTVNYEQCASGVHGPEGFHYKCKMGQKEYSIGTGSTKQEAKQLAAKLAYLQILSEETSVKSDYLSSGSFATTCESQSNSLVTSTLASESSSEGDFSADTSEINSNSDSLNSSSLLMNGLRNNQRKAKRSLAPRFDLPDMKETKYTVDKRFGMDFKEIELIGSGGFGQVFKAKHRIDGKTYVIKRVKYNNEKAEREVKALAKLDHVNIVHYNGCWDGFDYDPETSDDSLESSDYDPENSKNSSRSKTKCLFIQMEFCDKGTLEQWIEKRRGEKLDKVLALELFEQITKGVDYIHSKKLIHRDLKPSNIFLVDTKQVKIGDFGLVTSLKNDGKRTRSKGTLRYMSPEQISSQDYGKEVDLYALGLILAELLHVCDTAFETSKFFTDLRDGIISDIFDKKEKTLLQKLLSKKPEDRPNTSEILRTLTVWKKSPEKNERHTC
Method in brief: as §1

ADCK3 = target: T16, ADCK3 (Homo sapiens, UniProt Q8NI60)
T16 construct: host or cells: E. coli (BL21-derived), T7 phage lysate
Method in brief: as §1

MYLK = target: T17, MYLK (Homo sapiens, UniProt Q15746)
T17 construct: host or cells: T7 phage grown in E. coli host derived from BL21
Method in brief: as §1

MST2 = target: T18, MST2 (Homo sapiens, UniProt Q13188)
T18 construct: host or cells: T7 phage grown in E. coli host derived from BL21
T18 sequence (Q13188 whole entry): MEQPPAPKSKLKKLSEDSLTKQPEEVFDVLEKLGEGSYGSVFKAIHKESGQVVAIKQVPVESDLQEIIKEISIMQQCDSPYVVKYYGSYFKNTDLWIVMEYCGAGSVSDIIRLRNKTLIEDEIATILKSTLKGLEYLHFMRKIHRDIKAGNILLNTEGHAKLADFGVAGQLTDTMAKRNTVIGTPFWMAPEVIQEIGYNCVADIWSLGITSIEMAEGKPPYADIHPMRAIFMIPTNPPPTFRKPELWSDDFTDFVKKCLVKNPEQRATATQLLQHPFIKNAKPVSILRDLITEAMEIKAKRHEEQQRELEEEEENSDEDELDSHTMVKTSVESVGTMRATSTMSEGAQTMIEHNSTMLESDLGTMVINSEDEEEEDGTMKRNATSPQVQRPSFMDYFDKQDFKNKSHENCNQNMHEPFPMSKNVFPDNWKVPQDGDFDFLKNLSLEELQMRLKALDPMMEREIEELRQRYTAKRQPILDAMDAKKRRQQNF
Method in brief: as §1

RET = target: T19, RET (Homo sapiens, UniProt P07949)
T19 construct: host or cells: E. coli host derived from BL21, T7 phage display
Method in brief: as §1

CSNK1G2 = target: T20, CSNK1G2 (Homo sapiens, UniProt P78368)
T20 construct: purchased Ambit Biosciences Corp (KinomeScan); host or cells: T7 phage in E. coli host derived from BL21
Method in brief: as §1

RIPK2 = target: T21, RIPK2 (Homo sapiens, UniProt O43353)
T21 construct: host or cells: E. coli host derived from BL21, T7 phage display
Method in brief: as §1

FGFR2 = target: T22, FGFR2 (Homo sapiens, UniProt P21802)
T22 construct: host or cells: T7 phage in E. coli host derived from BL21
Method in brief: as §1

CHEK2 = target: T23, CHEK2 (Homo sapiens, UniProt O96017)
T23 construct: host or cells: T7 phage in E. coli host derived from BL21
Method in brief: as §1

MYO3B = target: T24, MYO3B (Homo sapiens, UniProt Q8WXR4)
T24 construct: host or cells: T7 phage grown in E. coli host derived from BL21
Method in brief: as §1

CLK4 = target: T25, CLK4 (Homo sapiens, UniProt Q9HAZ1)
T25 construct: host or cells: T7 phage in E. coli host derived from BL21
Method in brief: as §1

RET(M918T) = target: T26, RET(M918T) (Homo sapiens, UniProt P07949, M918T)
T26 construct: host or cells: E. coli host derived from BL21, T7 phage display
Method in brief: as §1

KIT(V559D, V654A) = target: T27, KIT(V559D, V654A) (Homo sapiens, UniProt P10721, V559D/V654A)
T27 construct: host or cells: T7 phage grown in E. coli host derived from BL21
T27 sequence (P10721 26-976 V559D/V654A): as the sequence (P10721 26-976 V559D) above, with V629A counted along it
Method in brief: as §1

TAK1 = target: T28, TAK1 (Homo sapiens, UniProt O43318)
T28 construct: host or cells: T7 phage grown in E. coli (BL21-derived)
Method in brief: as §1

TGFBR2 = target: T29, TGFBR2 (Homo sapiens, UniProt P37173)
T29 construct: host or cells: T7 phage grown in E. coli (BL21-derived)
Method in brief: as §1

DLK = target: T30, DLK (Homo sapiens, UniProt Q12852)
T30 construct: purchased Ambit Biosciences Corp (KinomeScan); host or cells: T7 phage in E. coli host derived from BL21
T30 sequence (Q12852 whole entry): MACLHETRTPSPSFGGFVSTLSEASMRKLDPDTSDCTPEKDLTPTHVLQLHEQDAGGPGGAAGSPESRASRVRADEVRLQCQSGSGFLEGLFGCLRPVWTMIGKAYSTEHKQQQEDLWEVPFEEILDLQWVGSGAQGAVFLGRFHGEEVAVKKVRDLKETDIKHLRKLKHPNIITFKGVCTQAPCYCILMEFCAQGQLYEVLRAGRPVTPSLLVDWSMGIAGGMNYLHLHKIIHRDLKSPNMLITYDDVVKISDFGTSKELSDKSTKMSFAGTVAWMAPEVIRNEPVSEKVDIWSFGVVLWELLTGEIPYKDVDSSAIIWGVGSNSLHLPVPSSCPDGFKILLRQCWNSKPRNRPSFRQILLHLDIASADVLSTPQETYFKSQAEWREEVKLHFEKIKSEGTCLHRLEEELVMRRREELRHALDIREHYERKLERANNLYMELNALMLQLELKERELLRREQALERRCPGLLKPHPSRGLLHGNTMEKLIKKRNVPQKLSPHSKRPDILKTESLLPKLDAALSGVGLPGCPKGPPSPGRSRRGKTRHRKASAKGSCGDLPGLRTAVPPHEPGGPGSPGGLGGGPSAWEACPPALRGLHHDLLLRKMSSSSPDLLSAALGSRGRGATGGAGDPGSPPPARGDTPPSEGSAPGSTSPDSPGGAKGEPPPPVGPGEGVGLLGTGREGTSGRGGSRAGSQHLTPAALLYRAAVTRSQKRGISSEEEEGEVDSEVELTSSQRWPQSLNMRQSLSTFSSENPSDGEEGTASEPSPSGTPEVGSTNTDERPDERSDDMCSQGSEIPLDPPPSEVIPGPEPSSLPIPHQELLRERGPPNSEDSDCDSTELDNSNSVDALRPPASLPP
Method in brief: as §1

NEK7 = target: T31, NEK7 (Homo sapiens, UniProt Q8TDX7)
T31 construct: host or cells: T7 phage grown in E. coli host derived from BL21
Method in brief: as §1

MAP4K5 = target: T32, MAP4K5 (Homo sapiens, UniProt Q9Y4K4)
T32 construct: host or cells: E. coli host derived from the BL21 strain, infected with T7 phage
T32 sequence (Q9Y4K4 whole entry): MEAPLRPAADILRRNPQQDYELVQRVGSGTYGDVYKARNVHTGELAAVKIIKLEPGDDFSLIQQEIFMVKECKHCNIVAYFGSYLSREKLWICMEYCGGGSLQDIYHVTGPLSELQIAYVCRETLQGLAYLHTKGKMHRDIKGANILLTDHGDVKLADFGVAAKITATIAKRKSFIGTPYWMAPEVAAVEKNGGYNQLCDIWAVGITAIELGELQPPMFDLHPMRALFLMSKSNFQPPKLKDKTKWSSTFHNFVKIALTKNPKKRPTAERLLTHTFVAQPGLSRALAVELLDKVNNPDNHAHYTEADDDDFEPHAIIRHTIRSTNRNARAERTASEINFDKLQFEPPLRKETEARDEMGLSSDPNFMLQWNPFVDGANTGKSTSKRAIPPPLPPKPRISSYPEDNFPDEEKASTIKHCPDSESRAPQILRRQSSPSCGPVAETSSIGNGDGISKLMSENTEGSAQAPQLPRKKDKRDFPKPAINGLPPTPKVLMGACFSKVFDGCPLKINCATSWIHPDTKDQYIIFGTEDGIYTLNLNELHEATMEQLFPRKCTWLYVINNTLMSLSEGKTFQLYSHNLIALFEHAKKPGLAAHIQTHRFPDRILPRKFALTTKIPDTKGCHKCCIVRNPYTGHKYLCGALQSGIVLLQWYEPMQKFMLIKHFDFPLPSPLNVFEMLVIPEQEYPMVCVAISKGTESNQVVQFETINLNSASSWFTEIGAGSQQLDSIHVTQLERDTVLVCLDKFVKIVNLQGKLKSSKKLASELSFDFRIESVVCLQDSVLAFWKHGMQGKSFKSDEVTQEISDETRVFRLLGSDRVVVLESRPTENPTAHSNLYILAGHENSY
Method in brief: as §1

PKN2 = target: T33, PKN2 (Homo sapiens, UniProt Q16513)
T33 construct: host or cells: T7 phage in E. coli host derived from BL21
Method in brief: as §1

PLK1 = target: T34, PLK1 (Homo sapiens, UniProt P53350)
T34 construct: host or cells: T7 phage in E. coli host derived from BL21
T34 sequence (P53350 whole entry): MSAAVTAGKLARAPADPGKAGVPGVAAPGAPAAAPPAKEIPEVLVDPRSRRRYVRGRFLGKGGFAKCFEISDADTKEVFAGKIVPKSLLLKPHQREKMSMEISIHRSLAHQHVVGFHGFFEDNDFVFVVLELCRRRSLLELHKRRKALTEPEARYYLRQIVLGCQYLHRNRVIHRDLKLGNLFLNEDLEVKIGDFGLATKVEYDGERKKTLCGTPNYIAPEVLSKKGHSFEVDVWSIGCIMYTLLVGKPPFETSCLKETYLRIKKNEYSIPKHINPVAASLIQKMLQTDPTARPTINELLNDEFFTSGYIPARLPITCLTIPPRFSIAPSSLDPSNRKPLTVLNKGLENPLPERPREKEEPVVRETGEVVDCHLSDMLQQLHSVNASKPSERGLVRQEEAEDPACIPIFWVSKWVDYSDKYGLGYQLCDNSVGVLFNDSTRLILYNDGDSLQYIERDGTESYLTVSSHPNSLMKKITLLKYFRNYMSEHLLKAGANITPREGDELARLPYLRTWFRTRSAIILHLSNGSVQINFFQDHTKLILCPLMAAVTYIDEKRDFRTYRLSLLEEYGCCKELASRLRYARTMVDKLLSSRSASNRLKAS
Method in brief: as §1

C#Cc1cccc(Nc2ncnc3cc(OC)c(OCCCN4CCOCC4)cc23)c1 [NRC-2694, N-(3-ethynylphenyl)-7-methoxy-6-[3-(4-morpholinyl)propoxy]-4-quinazolinamine]
remaining binding at 10 µM (FLT3(N8411)): 16% | remaining binding at 10 µM (PIM1): 39% | remaining binding at 10 µM (KIT(V559D)): 17% | remaining binding at 10 µM (CSNK1G3): 61% | remaining binding at 10 µM (TXK): 39% | remaining binding at 10 µM [1]: 23% | remaining binding at 10 µM (SLK): 0.3% | remaining binding at 10 µM (ABL1(M351T)): 37% | remaining binding at 10 µM (ERK8): 62% | remaining binding at 10 µM (TSSK1B): 93% | remaining binding at 10 µM (ABL2): 43% | remaining binding at 10 µM (FGFR3): 100% | remaining binding at 10 µM (SIK): 53% | remaining binding at 10 µM (STK35): 52% | remaining binding at 10 µM (PRKR): 51% | remaining binding at 10 µM (ADCK3): 14% | remaining binding at 10 µM (MYLK): 62% | remaining binding at 10 µM (MST2): 85% | remaining binding at 10 µM (RET): 65% | remaining binding at 10 µM (CSNK1G2): 76% | remaining binding at 10 µM (RIPK2): 2.4% | remaining binding at 10 µM (FGFR2): 100% | remaining binding at 10 µM (CHEK2): 38% | remaining binding at 10 µM (MYO3B): 100% | remaining binding at 10 µM (CLK4): 17% | remaining binding at 10 µM (RET(M918T)): 37% | remaining binding at 10 µM (KIT(V559D, V654A)): 47% | remaining binding at 10 µM (TAK1): 66% | remaining binding at 10 µM (TGFBR2): 86% | remaining binding at 10 µM (DLK): 92% | remaining binding at 10 µM (NEK7): 78% | remaining binding at 10 µM (MAP4K5): 23% | remaining binding at 10 µM (PKN2): 31% | remaining binding at 10 µM (PLK1): 81%
